Results published in publication PMC6804006, “Synthesis, Biological Activities and Docking Studies of Novel 4-(Arylaminomethyl)benzamide Derivatives as Potential Tyrosine Kinase Inhibitors” (Molecules, 2019).

Legend:
[1] = target: T1, KDR (VEGFR2) (Homo sapiens, UniProt P35968); assay: ADP-Glo kinase inhibitory assay, KDR; type: biochemical; conditions: 10 nM
T1 construct: purchased Promega
Method: (§1) We investigated the kinase selectivity of targeted compounds against eight receptor tyrosine kinases including EGFR (epidermal growth factor receptor), HER-2 and HER4 (human epidermal growth factor receptor), IGF1R (insulin like growth factor 1 receptor), InsR (gene insulin receptor), KDR (kinase insert domain receptor), and PDGFRa and PDGFRb (platelet-derived growth factor receptors). The assay was performed using the Kinase-Glo Plus luminescence kinase assay kit (TK-1+ADP-Glo™, Promega, San Diego, CA, USA). It measures kinase activity by quantitating the amount of ATP remaining in solution following a kinase reaction.
Vascular endothelial growth factor receptor 2 (VEGFR2), also called kinase insert domain receptor (KDR), is a tyrosine kinase receptor for VEGFs that plays a central role in tumor angiogenesis; therefore, the inhibition of VEGFR2 is a promising therapeutic strategy for inhibiting angiogenesis and tumor growth.
(§2) The assay was performed using a Kinase Selectivity Profiling System (TK-1+ADP-Glo™ Assay and TK-2+ADP-Glo™ Assay, Promega), where the kinase activity was measured by quantifying the amount of ADP produced during a kinase reaction. The assay is performed in two steps; firstly, after the kinase reaction, an equal volume of ADP-Glo™ Reagent is added to terminate the kinase reaction and deplete the remaining ATP. Secondly, the Kinase Detection Reagent is added to simultaneously convert ADP to ATP and allow the newly synthesized ATP to be measured using a luciferase/luciferin reaction. The luminescent signal generated is proportional to the ADP concentration produced and is correlated with kinase activity. Our compounds were diluted with kinase buffer (5% DMSO), and 1 μL of the dilution was added to a 5-μL reaction so that the final concentration of DMSO was 1% in all of reactions. All of the enzymatic reactions were conducted at 23 °C for 60 min. The 5-μL reaction mixture contained 1µL of the compound solution, 2µL of the enzyme solution, and 2 µL of kinase substrate. After the enzymatic reaction, 5 µL of ADP-Glo™ Reagent (Promega, USA) was added to each reaction, and the plate was incubated for 40 min at 23 °C. Then, 10 µL of Kinase Detection Reagent (Promega, USA) was added to each reaction, and the plate was incubated for 30 min at 23 °C. Luminescence signal was measured using an Infinite M 200 plate reader (Tecan, Switzerland).
(§3) Kinase activity assays were performed in duplicate at each concentration. The luminescence data were analyzed using the computer software, Magellan™. The difference between luminescence intensities in the absence of Kinase (Lut) and in the presence of Kinase (Luc) was defined as 100% activity (Lut − Luc).

[2] = target: T2, InsR (Homo sapiens, UniProt P06213); assay: ADP-Glo kinase inhibitory assay, InsR; type: biochemical; conditions: for inhibition at 0.01 µM: read-out: % Inhibition at 10 nM, InsR; for selectivity for the gene insulin receptor, in words: 10 nM, panel of eight receptor tyrosine kinases
T2 construct: purchased Promega
Method: as §1, §2, §3

[3] = system: K-562 (chronic myelogenous leukemia); assay: MTT anti-proliferative assay, K-562; type: cell-based; conditions: Homo sapiens, K562, 48 h, 50% growth inhibition
Method: (§4) Each in vitro experiment was performed at least in triplicate, and the standard deviation of absorbance was less than 10% of the mean. For the in vitro assays, a stock solution (1% DMSO in the appropriate buffer with the tested compound diluted under sonication) was prepared from which several dilutions were made with the appropriate buffer.
(§5) Human cell lines were obtained from the Institute of Cytology, Russian Academy of Sciences. […] Cellular sensitivities to clofarabine and its lipid derivatives were measured with the MTT assay. Cells were plated in triplicate in 96-well plates (10^5 cells/well for suspended cell cultures and 5 × 10^3 cells/well for monolayer cultures); on the same day (suspended cell cultures) or on the following day (monolayer cultures), compounds were added at the appropriate dilutions. Plates were incubated under standard conditions for 48 h. Thereafter, 10 μL of MTT (Sigma) in phosphate-buffered saline (5 mg/mL) was added. The plates were incubated for an additional 4 h, and 150 μL of dimethyl sulfoxide (DMSO) was added to dissolve the formazan crystals. The optical density was read on a HALO MPR-95 Microplate Reader (Dynamica Scientific Ltd., Australia) at 570 nm. The antiproliferative effects were determined as degrees of inhibition of tumor cells (%).

[4] = target: T3, HER-4 (Homo sapiens, UniProt Q15303); assay: ADP-Glo kinase inhibitory assay, HER-4; type: biochemical; conditions: for inhibitory activity in relation to HER-4, in words: 10 nM, compared with imatinib; for inhibition at 0.01 µM: read-out: % Inhibition at 10 nM, HER-4
T3 construct: purchased Promega
Method: as §1, §2, §3

[5] = target: T4, EGFR (Homo sapiens, UniProt P00533); assay: ADP-Glo kinase inhibitory assay, EGFR; type: biochemical; conditions: read-out: % Inhibition at 10 nM, EGFR
T4 construct: purchased Promega
Method: as §1, §2, §3

[6] = system: HL-60 (promyelocytic leukemia); assay: MTT anti-proliferative assay, HL-60; type: cell-based, human; conditions: 50% growth inhibition
Method: as §4, §5

[7] = system: OKP-GS (carcinoma of the kidney); assay: MTT anti-proliferative assay, OKP-GS; type: cell-based; conditions: Homo sapiens, 48 h, 50% growth inhibition
Method: as §4, §5

[8] = target: T5, PDGFRb (Homo sapiens, UniProt P09619); assay: ADP-Glo kinase inhibitory assay, PDGFRb; type: biochemical; conditions: read-out: % Inhibition at 10 nM, PDGFRb
T5 construct: purchased Promega
Method: as §1, §2, §3

[9] = system: A549 (lung carcinoma); assay: MTT anti-proliferative assay, A-549; type: cell-based; conditions: Homo sapiens, 48 h, 50% growth inhibition
Method: as §4, §5

[10] = target: T6, HER-2 (Homo sapiens, UniProt P04626); assay: ADP-Glo kinase inhibitory assay, HER-2; type: biochemical; conditions: read-out: % Inhibition at 10 nM, HER-2
T6 construct: purchased Promega
Method: as §1, §2, §3

[11] = system: MCF-7 (breast adenocarcinoma); assay: MTT anti-proliferative assay, MCF-7; type: cell-based; conditions: Homo sapiens, MCF7, 48 h, 50% growth inhibition
Method: as §4, §5

[12] = system: HeLa (cervix carcinoma); assay: MTT anti-proliferative assay, HeLa; type: cell-based; conditions: Homo sapiens, 48 h, 50% growth inhibition
Method: as §4, §5

[13] = target: T7, PDGFRa (Homo sapiens, UniProt P16234); assay: ADP-Glo kinase inhibitory assay, PDGFRa; type: biochemical; conditions: read-out: % Inhibition at 10 nM, PDGFRa
T7 construct: purchased Promega
Method: as §1, §2, §3

[14] = target: T8, IGF1R (Homo sapiens, UniProt P08069); assay: ADP-Glo kinase inhibitory assay, IGF1R; type: biochemical; conditions: read-out: % Inhibition at 10 nM, IGF1R
T8 construct: purchased Promega
Method: as §1, §2, §3

[15] = system: RPMI 1788 (B lymphocyte, human normal cells); assay: MTT assay on normal cells RPMI 1788; type: cell-based; conditions: MTT 48 h
Method: as §4
Human cell lines were obtained from the Institute of Cytology, Russian Academy of Sciences. The cell lines studied were maintained in RPMI 1640 medium (AppliChem, Darmstadt, Germany) supplemented with 20% (HL-60, RPMI 1788) fetal calf serum (HyClone, Cramlington, UK), in DMEM (A 549) and Eagle’s MEM (AppliChem) (MCF7, HeLa) with 10% fetal calf serum (HyClone). Cells were cultivated at 37 °C in a humidified atmosphere of 5% CO2. Cellular sensitivities to clofarabine and its lipid derivatives were measured with the MTT assay. Cells were plated in triplicate in 96-well plates (10^5 cells/well for suspended cell cultures and 5 × 10^3 cells/well for monolayer cultures); on the same day (suspended cell cultures) or on the following day (monolayer cultures), compounds were added at the appropriate dilutions. Plates were incubated under standard conditions for 48 h. Thereafter, 10 μL of MTT (Sigma) in phosphate-buffered saline (5 mg/mL) was added. The plates were incubated for an additional 4 h, and 150 μL of dimethyl sulfoxide (DMSO) was added to dissolve the formazan crystals. The optical density was read on a HALO MPR-95 Microplate Reader (Dynamica Scientific Ltd., Australia) at 570 nm. The antiproliferative effects were determined as degrees of inhibition of tumor cells (%).

T3 sequence (Q15303 26-1308): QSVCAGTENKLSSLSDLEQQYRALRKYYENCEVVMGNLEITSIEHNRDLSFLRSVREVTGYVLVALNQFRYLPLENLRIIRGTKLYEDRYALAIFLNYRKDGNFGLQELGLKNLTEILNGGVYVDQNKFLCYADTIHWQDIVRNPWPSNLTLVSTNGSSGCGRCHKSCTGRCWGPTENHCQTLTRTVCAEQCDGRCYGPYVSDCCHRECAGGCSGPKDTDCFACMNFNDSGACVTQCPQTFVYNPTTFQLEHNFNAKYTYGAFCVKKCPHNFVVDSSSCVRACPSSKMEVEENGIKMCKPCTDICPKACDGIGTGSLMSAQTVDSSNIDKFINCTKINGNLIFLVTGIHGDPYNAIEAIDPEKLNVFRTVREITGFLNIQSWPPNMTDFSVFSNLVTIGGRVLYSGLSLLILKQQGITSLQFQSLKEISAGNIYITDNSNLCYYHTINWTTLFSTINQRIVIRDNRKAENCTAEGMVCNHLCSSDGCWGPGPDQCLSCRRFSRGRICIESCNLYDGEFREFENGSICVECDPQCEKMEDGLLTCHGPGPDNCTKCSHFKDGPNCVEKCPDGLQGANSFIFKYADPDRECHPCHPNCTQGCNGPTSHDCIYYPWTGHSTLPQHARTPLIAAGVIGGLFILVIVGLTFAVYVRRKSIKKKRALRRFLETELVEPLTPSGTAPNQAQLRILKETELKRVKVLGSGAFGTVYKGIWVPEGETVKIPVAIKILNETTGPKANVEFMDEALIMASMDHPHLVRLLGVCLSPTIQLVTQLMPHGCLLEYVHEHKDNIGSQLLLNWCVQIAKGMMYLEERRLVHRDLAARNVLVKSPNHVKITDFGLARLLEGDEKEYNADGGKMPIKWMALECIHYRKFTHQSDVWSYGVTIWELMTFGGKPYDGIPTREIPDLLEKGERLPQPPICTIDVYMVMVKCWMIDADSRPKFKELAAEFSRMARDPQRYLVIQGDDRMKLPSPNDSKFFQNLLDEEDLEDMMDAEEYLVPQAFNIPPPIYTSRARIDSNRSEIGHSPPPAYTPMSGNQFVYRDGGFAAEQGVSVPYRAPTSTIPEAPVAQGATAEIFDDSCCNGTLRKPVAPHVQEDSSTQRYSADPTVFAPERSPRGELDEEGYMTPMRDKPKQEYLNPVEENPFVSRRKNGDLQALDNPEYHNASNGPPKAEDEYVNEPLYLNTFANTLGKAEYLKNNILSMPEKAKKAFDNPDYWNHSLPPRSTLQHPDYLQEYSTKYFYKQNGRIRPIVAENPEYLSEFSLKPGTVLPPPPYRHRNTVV
T6 sequence (P04626 23-1255): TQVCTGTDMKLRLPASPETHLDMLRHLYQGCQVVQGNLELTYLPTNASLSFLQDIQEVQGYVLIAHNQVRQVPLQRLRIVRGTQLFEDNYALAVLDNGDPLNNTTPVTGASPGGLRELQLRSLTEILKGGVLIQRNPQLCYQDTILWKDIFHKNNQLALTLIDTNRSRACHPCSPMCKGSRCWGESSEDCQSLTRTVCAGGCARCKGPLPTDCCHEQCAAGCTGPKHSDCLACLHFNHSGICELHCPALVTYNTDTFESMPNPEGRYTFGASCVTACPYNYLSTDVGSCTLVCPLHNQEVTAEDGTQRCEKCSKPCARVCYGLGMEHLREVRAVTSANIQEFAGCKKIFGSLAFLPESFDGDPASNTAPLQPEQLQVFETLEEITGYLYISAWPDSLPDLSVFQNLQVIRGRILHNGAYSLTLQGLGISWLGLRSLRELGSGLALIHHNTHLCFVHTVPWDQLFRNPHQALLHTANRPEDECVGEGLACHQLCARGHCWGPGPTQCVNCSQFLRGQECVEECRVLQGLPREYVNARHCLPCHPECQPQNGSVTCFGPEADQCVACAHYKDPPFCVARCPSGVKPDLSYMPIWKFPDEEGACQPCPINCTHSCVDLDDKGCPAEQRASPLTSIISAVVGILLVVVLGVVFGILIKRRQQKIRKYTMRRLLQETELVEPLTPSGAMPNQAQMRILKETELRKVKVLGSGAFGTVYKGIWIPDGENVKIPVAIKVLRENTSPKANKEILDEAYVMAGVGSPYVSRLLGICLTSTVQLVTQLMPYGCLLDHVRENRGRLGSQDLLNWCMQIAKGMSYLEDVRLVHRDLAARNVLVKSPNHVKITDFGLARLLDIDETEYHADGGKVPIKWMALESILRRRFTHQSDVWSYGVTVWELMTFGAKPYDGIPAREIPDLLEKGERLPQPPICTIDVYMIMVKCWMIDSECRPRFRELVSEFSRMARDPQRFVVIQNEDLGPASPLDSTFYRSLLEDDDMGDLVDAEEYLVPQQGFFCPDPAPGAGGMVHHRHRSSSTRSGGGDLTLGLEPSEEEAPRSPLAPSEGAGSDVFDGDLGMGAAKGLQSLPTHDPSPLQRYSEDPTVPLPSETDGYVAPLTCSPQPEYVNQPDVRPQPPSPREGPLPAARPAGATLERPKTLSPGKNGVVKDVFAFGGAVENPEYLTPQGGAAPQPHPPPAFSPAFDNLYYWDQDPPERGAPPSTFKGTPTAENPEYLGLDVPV
T8 sequence (P08069 31-1367): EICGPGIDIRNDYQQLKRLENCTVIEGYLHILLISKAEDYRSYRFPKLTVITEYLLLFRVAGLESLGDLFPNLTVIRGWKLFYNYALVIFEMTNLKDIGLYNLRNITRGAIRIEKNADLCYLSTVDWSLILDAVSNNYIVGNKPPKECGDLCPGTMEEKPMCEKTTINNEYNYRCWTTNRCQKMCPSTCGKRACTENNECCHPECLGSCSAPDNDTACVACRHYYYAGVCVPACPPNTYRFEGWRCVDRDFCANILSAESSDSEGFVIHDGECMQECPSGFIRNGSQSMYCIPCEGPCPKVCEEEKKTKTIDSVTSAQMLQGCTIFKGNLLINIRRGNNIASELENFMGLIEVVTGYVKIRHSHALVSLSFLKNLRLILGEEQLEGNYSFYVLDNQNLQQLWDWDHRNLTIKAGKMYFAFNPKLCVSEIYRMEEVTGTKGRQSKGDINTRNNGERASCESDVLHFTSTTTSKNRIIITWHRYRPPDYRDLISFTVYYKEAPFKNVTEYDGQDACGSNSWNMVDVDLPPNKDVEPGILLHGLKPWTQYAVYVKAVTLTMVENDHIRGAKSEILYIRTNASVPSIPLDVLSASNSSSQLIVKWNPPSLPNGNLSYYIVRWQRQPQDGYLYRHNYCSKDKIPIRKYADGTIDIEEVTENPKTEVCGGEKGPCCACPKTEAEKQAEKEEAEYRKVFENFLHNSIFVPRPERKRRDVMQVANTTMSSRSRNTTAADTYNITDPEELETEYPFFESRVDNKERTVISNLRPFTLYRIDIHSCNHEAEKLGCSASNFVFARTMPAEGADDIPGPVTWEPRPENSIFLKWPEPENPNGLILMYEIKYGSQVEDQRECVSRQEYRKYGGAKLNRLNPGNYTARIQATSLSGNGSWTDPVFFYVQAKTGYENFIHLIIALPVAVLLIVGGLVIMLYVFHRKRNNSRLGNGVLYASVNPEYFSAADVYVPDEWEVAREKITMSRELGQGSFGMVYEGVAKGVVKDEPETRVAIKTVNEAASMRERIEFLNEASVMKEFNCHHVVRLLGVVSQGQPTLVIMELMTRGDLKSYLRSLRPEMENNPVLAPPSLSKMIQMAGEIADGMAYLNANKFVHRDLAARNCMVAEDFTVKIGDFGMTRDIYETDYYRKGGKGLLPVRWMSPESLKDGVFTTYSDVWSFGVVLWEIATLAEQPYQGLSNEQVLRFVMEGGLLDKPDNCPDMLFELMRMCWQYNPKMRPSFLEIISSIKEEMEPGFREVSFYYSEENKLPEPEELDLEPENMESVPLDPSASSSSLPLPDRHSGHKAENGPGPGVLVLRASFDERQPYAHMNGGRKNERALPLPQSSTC
T4 sequence (P00533 25-1210): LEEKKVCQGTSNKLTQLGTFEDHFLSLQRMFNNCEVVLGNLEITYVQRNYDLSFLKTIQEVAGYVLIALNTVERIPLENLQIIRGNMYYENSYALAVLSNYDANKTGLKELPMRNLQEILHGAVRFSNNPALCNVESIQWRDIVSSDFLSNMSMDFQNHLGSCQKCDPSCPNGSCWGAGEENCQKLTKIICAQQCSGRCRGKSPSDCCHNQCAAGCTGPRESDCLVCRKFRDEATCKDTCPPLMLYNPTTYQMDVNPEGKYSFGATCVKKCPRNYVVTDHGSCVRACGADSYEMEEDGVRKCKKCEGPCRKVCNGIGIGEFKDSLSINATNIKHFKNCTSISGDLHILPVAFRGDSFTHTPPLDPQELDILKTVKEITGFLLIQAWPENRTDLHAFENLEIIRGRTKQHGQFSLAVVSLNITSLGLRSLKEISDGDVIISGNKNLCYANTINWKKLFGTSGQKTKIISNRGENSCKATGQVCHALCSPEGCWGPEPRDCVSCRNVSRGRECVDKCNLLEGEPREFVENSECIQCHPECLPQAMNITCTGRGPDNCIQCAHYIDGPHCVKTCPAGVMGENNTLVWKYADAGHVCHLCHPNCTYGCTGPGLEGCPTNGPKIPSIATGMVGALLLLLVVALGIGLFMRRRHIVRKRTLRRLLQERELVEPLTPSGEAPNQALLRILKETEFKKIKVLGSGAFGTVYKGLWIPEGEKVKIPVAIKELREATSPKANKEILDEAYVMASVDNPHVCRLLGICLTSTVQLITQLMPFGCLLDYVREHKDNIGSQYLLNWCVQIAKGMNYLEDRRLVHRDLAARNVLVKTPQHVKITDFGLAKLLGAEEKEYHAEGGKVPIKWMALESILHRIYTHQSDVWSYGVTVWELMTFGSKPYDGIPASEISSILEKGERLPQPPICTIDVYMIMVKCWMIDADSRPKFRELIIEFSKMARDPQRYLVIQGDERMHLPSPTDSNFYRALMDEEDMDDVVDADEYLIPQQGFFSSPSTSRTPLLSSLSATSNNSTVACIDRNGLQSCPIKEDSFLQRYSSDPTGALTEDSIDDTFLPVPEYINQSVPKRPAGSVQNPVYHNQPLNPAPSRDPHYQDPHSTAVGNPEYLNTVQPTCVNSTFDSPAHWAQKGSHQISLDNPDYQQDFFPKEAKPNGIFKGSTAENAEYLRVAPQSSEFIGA

| Structure (SMILES) | inhibition at 0.01 µM [1] [%] | inhibition at 0.01 µM [2] [%] | IC50 [3] [µM] | inhibitory activity in relation to HER-4, in words [4] | inhibition at 0.01 µM [4] [%] | inhibition at 0.01 µM [5] [%] | IC50 ([6]; Homo sapiens, HL-60, 48 h) [µM] | IC50 [7] [µM] | inhibition at 0.01 µM [8] [%] | IC50 [9] [µM] | inhibition at 0.01 µM [10] [%] | IC50 [11] [µM] | IC50 [12] [µM] | inhibition at 0.01 µM [13] [%] | inhibition at 0.01 µM [14] [%] | melting point [°C] | inhibition at 100 µM [15] [%] | selectivity for the gene insulin receptor, in words [2] | IC50 ([6]; 48 h) [µM] |
| --- | --- | --- | --- | --- | --- | --- | --- | --- | --- | --- | --- | --- | --- | --- | --- | --- | --- | --- | --- |
| Cc1cn(-c2cc(NCc3ccc(C(=O)Nc4cccc(C(F)(F)F)c4)cc3)cc(C(F)(F)F)c2)cn1 [Compound 13, 4-({[3-(4-Methyl-1H-imidazol-1-yl)-5-(trifluoromethyl)phenyl]amino}methyl)-N-[3-(trifluoromethyl)phenyl]benzamide] | 20 | 0 | 5.6 | comparable to imatinib | 54 | 92 | 46 | 52 | 8 | 55 | 34 | 69 | 57.5 | 59 | 0 | 129 to 131 | 9.36 | – | – |
| Cc1cn(-c2cc(NCc3ccc(C(=O)Nc4cc([N+](=O)[O-])ccc4C)cc3)cc(C(F)(F)F)c2)cn1 [Compound 15, 4-({[3-(4-Methyl-1H-imidazol-1-yl)-5-(trifluoromethyl)phenyl]amino}methyl)-N-{[(2-methyl-5-nitrophenyl) benzoate] | 0 | 43 | 31 | – | 0 | 0 | 5.6 | > 100 | 0 | 73 | 0 | > 100 | 78.5 | 0 | 0 | 205 to 208 | 15.9 | high selectivity | 5.8 |
| Cc1cn(-c2cc(NC(=O)c3ccc(CNc4cccc(C(F)(F)F)c4)cc3)cc(C(F)(F)F)c2)cn1 [Compound 11, N-(3-(4-methyl-1H-imidazol-1-yl)-5-(trifluoromethyl)phenyl)-4-(((3-(trifluoromethyl)phenyl)amino)methyl)benzamide] | 16 | 0 | 53 | comparable to imatinib | 49 | 91 | 51 | 54.3 | 0 | 61 | 0 | 57 | 54 | 55 | 0 | 83 to 85 | 15.5 | – | – |
| CNC(=O)c1cc(Oc2ccc(NCc3ccc(C(=O)Nc4cc(-n5cnc(C)c5)cc(C(F)(F)F)c4)cc3)cc2)ccn1 [Compound 10, N-methyl-4-(4-((4-((3-(4-methyl-1H-imidazol-1-yl)-5-(trifluoromethyl)phenyl)carbamoyl)benzyl)amino)phenoxy)picolinamide] | 27 | 46 | 40 | comparable to imatinib | 51 | 65 | 8.2 | 81 | 0 | > 100 | 0 | > 100 | > 100 | 66 | 0 | 153 to 156 | 10.4 | – | – |
| COc1ccc(C(=O)N2CCN(Cc3ccc(C(=O)Nc4cc(-n5cnc(C)c5)cc(C(F)(F)F)c4)cc3)CC2)cc1 [Compound 28i, 4-{[4-(4-Methoxybenzoyl)piperazin-1-yl]methyl}-N-[3-(4-methyl-1H-imidazol-1-yl)-5-(trifluoromethyl)phenyl]benzamide] | 0 | 52 | 30.7 | – | 0 | 0 | 38 | 78 | 0 | > 100 | 0 | 63 | 11.5 | 0 | 3 | 98 to 102 | 6.32 | high selectivity | – |
